Source: US20170215422A1, “NOVEL CYCLIC DEPSIPEPTIDE DERIVATIVES AND HARMFUL ORGANISM CONTROL AGENTS COMPRISING THE SAME” (priority 2012, published 2017)

Tested on: egg of drug-resistant Tetranychus uruticae
Test: Ovicidal effect against egg of drug-resistant Tetranychus uruticae
Assay type: in vivo
Conditions: foliage treatment of 10 ppm; eggs, drug-resistant strain; 7 days
Protocol: <Miticidal Effect Against Two-Spotted Spider Mite (Drug-Resistant Strain)>
(§1) A leaf disk having a diameter of 2.0 cm was cut out from a kidney bean grown in a pot. The leaf disk was inoculated with seven female adult of drug-resistant Tetranychus uruticae, followed by laying in a thermostatic chamber (25° C.). After the elapse of 24 hr, female adults were removed from the leaf disk. The foliage was treated with a chemical solution adjusted to a 50% aqueous acetone solution (0.05% Tween 20 added) containing a compound of the present invention at a predetermined concentration. The foliage was then air-dried and was allowed to stand in a thermostatic chamber (light period 16 hr-dark period 8 hr) (25° C.). Seven days after the chemical solution treatment, the number of remaining eggs and the number of dead mites were counted, and the ovicidal/miticidal rate was calculated by the following equation.
(§2) Ovicidal/miticidal rate (%)={(number of remaining eggs+number of dead mites)/(number of remaining eggs+number of dead mites+number of survived insects)}×100

| SMILES | ovicidal/miticidal rate |
| --- | --- |
| CCCCCCCCCCCCC1=C(OC(C)=O)C(=O)c2ccccc2C1=O [acequinocyl, reference compound] | 11% |

Same assay, conditions: summary of test results in words

| SMILES | insecticidal effect against a strain having a lowered susceptibility to acequinocyl |
| --- | --- |
| CCCCCC1OC(=O)C(CCC)N(C)C(=O)C(CCCCC)OC(=O)C(CC(C)C)N(C)C(=O)C(CCCCC)OC(=O)C(CC(C)C)N(C)C(=O)C(CCCCC)OC(=O)C(CCC)N(C)C1=O (centres unmarked) [Compound 53] | high insecticidal effect |
| CCCCCC1OC(=O)C(CCC)N(C)C(=O)C(CCCCC)OC(=O)C(CCC)N(C)C(=O)C(CCCCC)OC(=O)C(CC(C)C)N(C)C(=O)C(CCCCC)OC(=O)C(CCC)N(C)C1=O (centres unmarked) [Compound 55] | high insecticidal effect |
| CCCCCC1OC(=O)C(CC(C)C)N(C)C(=O)C(CCCCC)OC(=O)C(CC(C)C)N(C)C(=O)C(CCCCC)OC(=O)C(CC(C)C)N(C)C(=O)C(CCCCC)OC(=O)C(CCC)N(C)C1=O (centres unmarked) [Compound 56] | high insecticidal effect |

Tested on: Musca domestica
Test: Control effect against Musca domestica adults (sucrose solution on swab)
Assay type: in vivo
Conditions: 50 ppm in 40% sucrose solution, 4 days
Protocol: A chemical solution of the compound according to the present invention that had been adjusted with a 40% sucrose solution to a concentration of 50 ppm was adsorbed on a swab, and the swab was placed in a vial. Two adults of Musca domestica grown in a room were released, followed by standing in a room at a room temperature of 25° C. […] When two insects were in a dead or anguished state, the test compound was determined to be effective.

| SMILES | insecticidal activity (two adults dead or anguished = effective) |
| --- | --- |
| CCCCCC1OC(=O)C(C)N(C)C(=O)C(CCCCC)OC(=O)C(C)N(C)C(=O)C(CCCCC)OC(=O)C(C)N(C)C(=O)C(CCCCC)OC(=O)CN(C)C1=O (centres unmarked) [Compound 1] | two insects were brought to a dead or anguished state |
| CCCCCCCCC1OC(=O)CN(C)C(=O)C(CCCCC)OC(=O)C(C)N(C)C(=O)C(CCCCC)OC(=O)C(C)N(C)C(=O)C(CCCCC)OC(=O)C(C)N(C)C1=O (centres unmarked) [Compound 4] | two insects were brought to a dead or anguished state |
| CCCCCCCCC1OC(=O)C(C)N(C)C(=O)C(CCCCC)OC(=O)C(C)N(C)C(=O)C(CCCCC)OC(=O)C(C)N(C)C(=O)C(CCCCC)OC(=O)C(C)N(C)C1=O (centres unmarked) [Compound 8] | two insects were brought to a dead or anguished state |
| CCCCCCCCCC1OC(=O)C(C)N(C)C(=O)C(CCCCC)OC(=O)C(C)N(C)C(=O)C(CCCCC)OC(=O)C(C)N(C)C(=O)C(CCCCC)OC(=O)C(C)N(C)C1=O (centres unmarked) [Compound 9] | two insects were brought to a dead or anguished state |
| CCCCCCC1OC(=O)C(CC)N(C)C(=O)C(CCCCC)OC(=O)C(C)N(C)C(=O)C(CCCCC)OC(=O)C(C)N(C)C(=O)C(CCCCC)OC(=O)C(C)N(C)C1=O (centres unmarked) [Compound 11] | two insects were brought to a dead or anguished state |
| CCCCCCCC1OC(=O)C(CC)N(C)C(=O)C(CCCCC)OC(=O)C(C)N(C)C(=O)C(CCCCC)OC(=O)C(C)N(C)C(=O)C(CCCCC)OC(=O)C(C)N(C)C1=O (centres unmarked) [Compound 12] | two insects were brought to a dead or anguished state |
| CCCCCCCCC1OC(=O)C(CC)N(C)C(=O)C(CCCCC)OC(=O)C(C)N(C)C(=O)C(CCCCC)OC(=O)C(C)N(C)C(=O)C(CCCCC)OC(=O)C(C)N(C)C1=O (centres unmarked) [Compound 13] | two insects were brought to a dead or anguished state |
| CCCCCC1OC(=O)C(C)N(C)C(=O)C(CCCCC)OC(=O)C(CCCC)N(C)C(=O)C(CCCCC)OC(=O)C(C)N(C)C(=O)C(CCCCC)OC(=O)C(C)N(C)C1=O (centres unmarked) [Compound 15] | two insects were brought to a dead or anguished state |
| CCCCCCCC1OC(=O)C(CCCC)N(C)C(=O)C(CCCCC)OC(=O)C(C)N(C)C(=O)C(CCCCC)OC(=O)C(C)N(C)C(=O)C(CCCCC)OC(=O)C(C)N(C)C1=O [Compound 16, Cycro(-N-Me-L-Nle (R)-Nna-N-Me-L-Ala-(R)-Hep-N-Me-L-Ala-(R)-Hep-N-Me-L-Ala-(R)-Hep-)] | two insects were brought to a dead or anguished state |
| CCCCCCCC1OC(=O)C(CCC)N(C)C(=O)C(CCCCC)OC(=O)C(C)N(C)C(=O)C(CCCCC)OC(=O)C(C)N(C)C(=O)C(CCCCC)OC(=O)C(C)N(C)C1=O (centres unmarked) [Compound 21] | two insects were brought to a dead or anguished state |
| CCCCCCCCC1OC(=O)C(CCC)N(C)C(=O)C(CCCCC)OC(=O)C(C)N(C)C(=O)C(CCCCC)OC(=O)C(C)N(C)C(=O)C(CCCCC)OC(=O)C(C)N(C)C1=O (centres unmarked) [Compound 22] | two insects were brought to a dead or anguished state |
| CCCCCCCCCC1OC(=O)C(CCC)N(C)C(=O)C(CCCCC)OC(=O)C(C)N(C)C(=O)C(CCCCC)OC(=O)C(C)N(C)C(=O)C(CCCCC)OC(=O)C(C)N(C)C1=O (centres unmarked) [Compound 23] | two insects were brought to a dead or anguished state |
| CCCCCCC[C@H]1OC(=O)[C@H](CC(C)C)N(C)C(=O)[C@@H](CCCCC)OC(=O)[C@H](C)N(C)C(=O)[C@H](CCCCC)OC(=O)[C@H](C)N(C)C(=O)[C@@H](CCCCC)OC(=O)[C@H](C)N(C)C1=O [Compound 28] | two insects were brought to a dead or anguished state |
| CCCCCCCC[C@H]1OC(=O)[C@H](CC(C)C)N(C)C(=O)[C@@H](CCCCC)OC(=O)[C@H](C)N(C)C(=O)[C@H](CCCCC)OC(=O)[C@H](C)N(C)C(=O)[C@@H](CCCCC)OC(=O)[C@H](C)N(C)C1=O [Compound 29] | two insects were brought to a dead or anguished state |
| CCCCCCCC1OC(=O)C(CC(C)C)N(C)C(=O)C(CCCCC)OC(=O)CN(C)C(=O)C(CCCCC)OC(=O)CN(C)C(=O)C(CCCCC)OC(=O)CN(C)C1=O (centres unmarked) [Compound 32] | two insects were brought to a dead or anguished state |
| CCCCCC1OC(=O)C(CC(C)C)N(C)C(=O)C(CCCCC)OC(=O)C(CC(C)C)N(C)C(=O)C(CCCCC)OC(=O)C(CC(C)C)N(C)C(=O)C(CCCCC)OC(=O)CN(C)C1=O (centres unmarked) [Compound 33] | two insects were brought to a dead or anguished state |
| CCCCC[C@H]1OC(=O)CN(C)C(=O)[C@@H](CCCCC)OC(=O)[C@H](CC(C)C)N(C)C(=O)[C@@H](CCCCC)OC(=O)[C@H](CC(C)C)N(C)C(=O)[C@@H](CCCCC)OC(=O)CN(C)C1=O [Compound 47, Cycro(-N-Me-L-Gly-(R)-Hep-N-Me-L-Gly-(R)-Hep-N-Me-L-Leu-(R)-Hep-N-Me-L-Leu-(R)-Hep-)] | two insects were brought to a dead or anguished state |
| CCCCCC1OC(=O)C(CC(C)C)N(C)C(=O)C(CCCCC)OC(=O)C(CCC)N(C)C(=O)C(CCCCC)OC(=O)C(CCC)N(C)C(=O)C(CCCCC)OC(=O)CN(C)C1=O (centres unmarked) [Compound 60] | two insects were brought to a dead or anguished state |

Tested on: egg of Tetranychus uruticae (susceptible strain)
Test: Ovicidal effect against egg of Tetranychus uruticae (susceptible strain)
Assay type: in vivo
Conditions: foliage treatment of 10 ppm; control agent
Protocol: <Miticidal Effect Against Two-Spotted Spider Mite (Susceptible Strain)>
as §1, with “of” for “of drug-resistant”
as §2

| SMILES | ovicial/miticidal rate against egg of Tetranychus uruticae (susceptible strain) |
| --- | --- |
| CCCCCCCCCCCCC1=C(OC(C)=O)C(=O)c2ccccc2C1=O [acequinocyl, reference compound] | 71% |

Tested on: adult of Ascaridiidae galli
Test: Anthelminticidal effect against adult of Ascaridiidae galli (in-vitro test)
Conditions: 50 ppm; six adults per culture solution; 41° C.; 24 hr
Protocol: The activity of compounds was evaluated based on a change in motility of adults of A. galli. Compounds of the present invention were dissolved in dimethyl sulfoxide, and the solution was added to a culture solution of A. galli that had been dissolved in a Ringer's solution to a compound concentration of 50 ppm. Six adults of A. galli were placed per culture solution, followed by culturing at 41° C.

| SMILES | anthelminticidal activity (adults that stopped automatic motility) |
| --- | --- |
| CCCCCC1OC(=O)C(C)N(C)C(=O)C(CCCCC)OC(=O)C(C)N(C)C(=O)C(CCCCC)OC(=O)C(C)N(C)C(=O)C(CCCCC)OC(=O)CN(C)C1=O (centres unmarked) [Compound 1] | four insects that had stopped automatic motility |
| CCCCCCC1OC(=O)CN(C)C(=O)C(CCCCC)OC(=O)C(C)N(C)C(=O)C(CCCCC)OC(=O)C(C)N(C)C(=O)C(CCCCC)OC(=O)C(C)N(C)C1=O [Compound 2, Cycro(-N-Me-L-Gly-(R)-Oct-N-Me-L-Ala-(R)Hep-N-Me-L-Ala-(R)-Hep-N-Me-L-Ala-(R)-Hep-)] | four insects that had stopped automatic motility |
| CCCCCC1OC(=O)C(C)N(C)C(=O)C(CCCC)OC(=O)C(C)N(C)C(=O)C(CCCCC)OC(=O)C(C)N(C)C(=O)C(CCCCC)OC(=O)C(C)N(C)C1=O (centres unmarked) [Compound 6] | four insects that had stopped automatic motility |
| CCCCCC1OC(=O)C(C)N(C)C(=O)C(CCCCC)OC(=O)C(CC)N(C)C(=O)C(CCCCC)OC(=O)C(C)N(C)C(=O)C(CCCCC)OC(=O)C(C)N(C)C1=O (centres unmarked) [Compound 10] | four insects that had stopped automatic motility |
| CCCCCC1OC(=O)C(C)N(C)C(=O)C(CCCCC)OC(=O)C(CCC)N(C)C(=O)C(CCCCC)OC(=O)C(C)N(C)C(=O)C(CCCCC)OC(=O)C(C)N(C)C1=O (centres unmarked) [Compound 19] | four insects that had stopped automatic motility |
| CCCCCC1OC(=O)C(C)N(C)C(=O)C(CCCCC)OC(=O)C(C)N(C)C(=O)C(CC(C)C)OC(=O)C(C)N(C)C(=O)C(CCCCC)OC(=O)C(C)N(C)C1=O (centres unmarked) [Compound 61] | four insects that had stopped automatic motility |
